From ChEMBL document CHEMBL1201862, “PubChem BioAssay data set” (2004) come the findings set out here.

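Each compound was tested at five concentrations against cells in 96-well plates for 48 hours. GI50 = concentration required for 50% inhibition of growth.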 The source made the active and inactive calls. No stated cut-off is given here; in the data, active = GI50 up to about 1.1 µM and inactive = higher.

Some test systems named below: A498; HCT-116; MCF7; SK-MEL-2; HOP-92; ACHN; HT-29; SN12C; KM12; HCT-15; K562; SNB-75; SW-620; SK-MEL-28; SK-MEL-5; A549; NCI-H460; SNB-19; SF-268; HL-60.
Test in all cases: NCI anticancer screen, dose series, 48 h

For `CC(C)c1nccn1Cc1ccc(Cl)cc1Cl`, the GI50 in the test with A498 was 55.5 µM (inactive); in the test with HCT-116, 16.3 µM (inactive); in the test on MCF7, 34.1 µM (inactive); in the test on SK-MEL-2, 74.3 µM (inactive); in the test on HOP-92, 37.8 µM (inactive); with ACHN, 83 µM (inactive). For the same compound, the GI50 with HT-29 is 28.8 µM (inactive); in the test on SN12C, 26.5 µM (inactive); in the test with KM12 it was 30.5 µM (inactive); with HCT-15, 42.4 µM; with K562, 79.1 µM (inactive); with SNB-75, 36.5 µM (inactive). The GI50 in the test with SW-620 was 49.1 µM (inactive); with SK-MEL-28, > 100 µM (inactive); with SK-MEL-5, 12 µM (inactive); with A549 it was 34.4 µM (inactive); with NCI-H460, 34 µM (inactive); in the test with SNB-19, 48.5 µM (inactive). Further, the GI50 in the test on SF-268 was 76.9 µM (inactive).

Consider `Oc1cc(Cl)cc2cc(Br)cnc12`, for which the GI50 with A498 was 27.7 µM (inactive); with HCT-116, 1.09 µM (active); with MCF7 it was 3.1 µM (inactive); in the test on HOP-92, 4.69 µM (inactive); in the test on ACHN, 1.88 µM (inactive); in the test on HT-29, 11.3 µM (inactive). In addition, the GI50 was 2.23 µM (inactive) with SN12C; 4.69 µM (inactive) with KM12; 0.771 µM in the test on HCT-15; 0.258 µM (active) with HL-60; 1.69 µM (inactive) in the test on K562; 13.6 µM (inactive) in the test on SNB-75. The GI50 is 3.96 µM (inactive) in the test with SW-620; 7.16 µM (inactive) with SK-MEL-28; 1.53 µM (inactive) with SK-MEL-5; 3.27 µM (inactive) with A549; 1.99 µM (inactive) in the test with NCI-H460; 4.1 µM (inactive) in the test with SNB-19. For the same compound, the GI50 in the test with SF-268 is 1.59 µM (inactive).

`O=C(Nc1nc2c(=O)[nH]cnc2s1)c1ccccc1`: the GI50 is 83.4 µM (inactive) in the test with A498; > 100 µM (inactive) in the test with HCT-116; 45.6 µM (inactive) in the test on MCF7; > 100 µM (inactive) in the test with SK-MEL-2; 49.1 µM (inactive) with HOP-92; 91 µM (inactive) in the test with ACHN. The GI50 is 50.4 µM (inactive) with HT-29; > 100 µM (inactive) in the test with SN12C; over 100 µM in the test with HCT-15; 53.8 µM (inactive) with HL-60; 62.5 µM (inactive) with K562; 44.2 µM (inactive) in the test with SNB-75. Also, the GI50 in the test on SW-620 is > 100 µM (inactive); in the test with SK-MEL-28, > 100 µM (inactive); in the test with SK-MEL-5, > 100 µM (inactive); in the test on A549 it was 81.7 µM (inactive); in the test with NCI-H460 it was 41.5 µM (inactive); in the test on SNB-19 it was > 100 µM (inactive). Besides, the GI50 with SF-268 was > 100 µM (inactive).

For `CC1C2CC(C(C3C(=O)C4CC3C(C)(C)C4C)C2=O)C1(C)C` (centres undefined), the GI50 with A498, in the test with HCT-116, in the test with MCF7, in the test on HOP-92, in the test on ACHN and in the test on HT-29 was > 100 µM (inactive) throughout. The GI50 in the test with SN12C, in the test on KM12, with HL-60, in the test with K562, in the test with SNB-75 and in the test on SW-620 was > 100 µM (inactive) each time. For the same compound, the GI50 in the test on SK-MEL-28, in the test on SK-MEL-5, in the test on A549, in the test on NCI-H460, with SNB-19 and with SF-268 was > 100 µM (inactive) in each case.

Take `CC12CCC3C(CCC4=CC(O)CCC43C=O)C1(O)CCC2c1ccc(=O)oc1` (centres undefined): the GI50 was 0.00802 µM (active) in the test on A498; 0.05 µM (active) in the test with HCT-116; 0.05 µM (active) in the test on MCF7; 0.0116 µM (active) with SK-MEL-2; 0.0164 µM (active) in the test on HOP-92; 0.00929 µM (active) in the test with HT-29. The GI50 is 0.00438 µM (active) in the test with SN12C; 0.0129 µM (active) in the test with KM12; 0.0508 µM with HCT-15; 0.00395 µM (active) with HL-60; 0.05 µM (active) in the test with K562; 0.011 µM (active) with SNB-75. For the same compound, the GI50 in the test with SW-620 is 0.05 µM (active); in the test with SK-MEL-28, 0.05 µM (active); in the test with SK-MEL-5, 0.00622 µM (active); in the test on NCI-H460, 0.00182 µM (active); in the test with SNB-19, 0.00622 µM (active).

With `O=C(NS(=O)(=O)OCC(Cl)(Cl)Cl)SCCC(F)(F)C(F)(F)C(F)(F)C(F)(F)C(F)(F)C(F)(F)F`, the GI50 is 31 µM (inactive) in the test on A498; 19.8 µM (inactive) in the test with HCT-116; 20 µM (inactive) with MCF7; 25.3 µM (inactive) in the test with SK-MEL-2; 10.4 µM (inactive) in the test on HOP-92; 40.9 µM (inactive) with ACHN. In addition, the GI50 in the test with HT-29 was 18.8 µM (inactive); with SN12C it was 32.4 µM (inactive); with KM12, 19.9 µM (inactive); in the test with HCT-15, 20.9 µM; in the test with HL-60, 23.1 µM (inactive); in the test on K562 it was 28.6 µM (inactive). The GI50 with SNB-75 is 23.1 µM (inactive); in the test on SW-620, 20.2 µM (inactive); in the test with SK-MEL-28 it was 22.7 µM (inactive); in the test on A549, 30.2 µM (inactive); in the test on NCI-H460, 19.6 µM (inactive); in the test on SNB-19 it was 17.9 µM (inactive). Further, the GI50 with SF-268 is 40.4 µM (inactive).

On to `CSc1nc2c(c(=O)n1C)N=C(c1ccc(Cl)cc1)CC(c1ccccc1)N2` (centres undefined), for which the GI50 is 33 µM (inactive) in the test on A498; 27.2 µM (inactive) in the test with HCT-116; 14.2 µM (inactive) in the test on MCF7; 13.9 µM (inactive) with SK-MEL-2; 33.8 µM (inactive) in the test with HOP-92; 19 µM (inactive) with ACHN. In addition, the GI50 in the test on HT-29 is 15.6 µM (inactive); with SN12C, 18.7 µM (inactive); with KM12, 15.7 µM (inactive); with HL-60, 29 µM (inactive); in the test with K562, 20.7 µM (inactive); in the test on SNB-75 it was 13.3 µM (inactive). The GI50 in the test on SW-620 was 49 µM (inactive); in the test with SK-MEL-28, 47.8 µM (inactive); with SK-MEL-5 it was 19.5 µM (inactive); in the test on A549 it was 25.2 µM (inactive); in the test with SNB-19, 36.3 µM (inactive).

Consider `CCCc1[nH]c2ccccc2c1-c1c(CCC)[nH]c2ccccc12`, for which the GI50 with A498 is > 86.1 µM (inactive); with HCT-116, 4.6 µM (inactive); with MCF7, 4.66 µM (inactive); in the test with SK-MEL-2 it was 14.2 µM (inactive); in the test with HOP-92, 19.5 µM (inactive); in the test on ACHN, 16.9 µM (inactive). For the same compound, the GI50 is 8.61 µM (inactive) with HT-29; 10.1 µM (inactive) in the test on SN12C; 16.6 µM (inactive) with KM12; 3.62 µM in the test on HCT-15; 7.74 µM (inactive) in the test with K562; 19.4 µM (inactive) with SNB-75. Moreover, the GI50 in the test with SW-620 is 6.76 µM (inactive); with SK-MEL-28 it was 7.46 µM (inactive); in the test on SK-MEL-5, 10.2 µM (inactive); in the test on A549 it was 27.7 µM (inactive); with NCI-H460, 23.9 µM (inactive); in the test with SNB-19, 13.5 µM (inactive). Further, the GI50 in the test with SF-268 is 9.62 µM (inactive).

As to `CC(C)=C[C@@H]1C[C@H](C)[C@H]2CC[C@H](C)[C@H]3C(=O)C(O)=C(C)C(=O)[C@]123`, the GI50 was > 100 µM (inactive) in the test on A498; 88.5 µM (inactive) in the test with HCT-116; > 100 µM (inactive) in the test with MCF7; 42.7 µM (inactive) in the test on HOP-92; > 100 µM (inactive) in the test on ACHN; > 100 µM (inactive) with HT-29. Besides, the GI50 in the test on SN12C was > 100 µM (inactive); in the test on KM12 it was > 100 µM (inactive); in the test with HCT-15, over 100 µM; with HL-60, > 100 µM (inactive); in the test with K562, > 100 µM (inactive); in the test on SNB-75, > 100 µM (inactive). The GI50 in the test on SW-620 was > 100 µM (inactive); with SK-MEL-28, > 100 µM (inactive); with SK-MEL-5 it was > 100 µM (inactive); in the test with A549, 57.8 µM (inactive); with NCI-H460, > 100 µM (inactive); with SNB-19 it was > 100 µM (inactive). Moreover, the GI50 with SF-268 is > 100 µM (inactive).

As for `NC(Cc1cc(I)c(O)c(I)c1)C(=O)O` (centres undefined), the GI50 was > 500 µM (inactive) in the test on A498; 470 µM (inactive) in the test with HCT-116; > 394 µM (inactive) in the test on MCF7; > 500 µM (inactive) with SK-MEL-2; 13.6 µM (inactive) in the test with HOP-92; > 346 µM (inactive) with HT-29. Further, the GI50 is > 500 µM (inactive) in the test with SN12C; > 500 µM (inactive) in the test with KM12; 307 µM in the test with HCT-15; 185 µM (inactive) in the test on HL-60; > 500 µM (inactive) in the test on K562; > 249 µM (inactive) in the test on SNB-75. For the same compound, the GI50 with SW-620 was 163 µM (inactive); in the test on SK-MEL-28 it was > 500 µM (inactive); in the test on SK-MEL-5, > 500 µM (inactive); with A549, > 500 µM (inactive); in the test on NCI-H460 it was 301 µM (inactive); with SNB-19 it was 249 µM (inactive). For the same compound, in the test on SF-268, the GI50 was > 484 µM (inactive).

In the case of `CCOC(=O)N/N=C(/N)Cc1ccccc1`, the GI50 in the test with A498, with HCT-116, in the test on MCF7, in the test on SK-MEL-2, with HOP-92 and with ACHN was > 100 µM (inactive) throughout. The GI50 was > 100 µM (inactive) with SN12C; > 100 µM (inactive) with KM12; over 100 µM in the test with HCT-15; > 100 µM (inactive) in the test on HL-60; > 100 µM (inactive) in the test with K562; > 100 µM (inactive) in the test on SNB-75. The GI50 in the test with SW-620, with SK-MEL-28, with SK-MEL-5, in the test with A549, with NCI-H460 and in the test on SNB-19 was > 100 µM (inactive) throughout. Also, the GI50 in the test on SF-268 is > 100 µM (inactive).
